Reference: patent publication US20240208992A1, “MACROCYCLES AS CFTR MODULATORS” (Idorsia Pharmaceuticals Ltd, priority 2021, published 2024)

Target: human F508del-CFTR (Homo sapiens, UniProt P13569, DEL508-508)
Assay: F508del-CFTR cell surface expression (corrector activity), DiscoveRx ß-galactosidase complementation chemiluminescence assay in recombinant U2OS cell line;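 further: U2OS cells co-expressing ProLink-tagged F508del-CFTR and a membrane-anchored enzyme acceptor, where more surface CFTR restores β-galactosidase activity measured by chemiluminescence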
Conditions: U2OS cells, 16h compound incubation; for EC50: EC50, F508del-CFTR cell surface expression, geomean of several measurements; for Emax: U2OS, in relation to the Emax of the corrector lumacaftor (=100%), arithmetic mean

Sequence of human F508del-CFTR (P13569 with tags, fused parts or gaps DEL508-508): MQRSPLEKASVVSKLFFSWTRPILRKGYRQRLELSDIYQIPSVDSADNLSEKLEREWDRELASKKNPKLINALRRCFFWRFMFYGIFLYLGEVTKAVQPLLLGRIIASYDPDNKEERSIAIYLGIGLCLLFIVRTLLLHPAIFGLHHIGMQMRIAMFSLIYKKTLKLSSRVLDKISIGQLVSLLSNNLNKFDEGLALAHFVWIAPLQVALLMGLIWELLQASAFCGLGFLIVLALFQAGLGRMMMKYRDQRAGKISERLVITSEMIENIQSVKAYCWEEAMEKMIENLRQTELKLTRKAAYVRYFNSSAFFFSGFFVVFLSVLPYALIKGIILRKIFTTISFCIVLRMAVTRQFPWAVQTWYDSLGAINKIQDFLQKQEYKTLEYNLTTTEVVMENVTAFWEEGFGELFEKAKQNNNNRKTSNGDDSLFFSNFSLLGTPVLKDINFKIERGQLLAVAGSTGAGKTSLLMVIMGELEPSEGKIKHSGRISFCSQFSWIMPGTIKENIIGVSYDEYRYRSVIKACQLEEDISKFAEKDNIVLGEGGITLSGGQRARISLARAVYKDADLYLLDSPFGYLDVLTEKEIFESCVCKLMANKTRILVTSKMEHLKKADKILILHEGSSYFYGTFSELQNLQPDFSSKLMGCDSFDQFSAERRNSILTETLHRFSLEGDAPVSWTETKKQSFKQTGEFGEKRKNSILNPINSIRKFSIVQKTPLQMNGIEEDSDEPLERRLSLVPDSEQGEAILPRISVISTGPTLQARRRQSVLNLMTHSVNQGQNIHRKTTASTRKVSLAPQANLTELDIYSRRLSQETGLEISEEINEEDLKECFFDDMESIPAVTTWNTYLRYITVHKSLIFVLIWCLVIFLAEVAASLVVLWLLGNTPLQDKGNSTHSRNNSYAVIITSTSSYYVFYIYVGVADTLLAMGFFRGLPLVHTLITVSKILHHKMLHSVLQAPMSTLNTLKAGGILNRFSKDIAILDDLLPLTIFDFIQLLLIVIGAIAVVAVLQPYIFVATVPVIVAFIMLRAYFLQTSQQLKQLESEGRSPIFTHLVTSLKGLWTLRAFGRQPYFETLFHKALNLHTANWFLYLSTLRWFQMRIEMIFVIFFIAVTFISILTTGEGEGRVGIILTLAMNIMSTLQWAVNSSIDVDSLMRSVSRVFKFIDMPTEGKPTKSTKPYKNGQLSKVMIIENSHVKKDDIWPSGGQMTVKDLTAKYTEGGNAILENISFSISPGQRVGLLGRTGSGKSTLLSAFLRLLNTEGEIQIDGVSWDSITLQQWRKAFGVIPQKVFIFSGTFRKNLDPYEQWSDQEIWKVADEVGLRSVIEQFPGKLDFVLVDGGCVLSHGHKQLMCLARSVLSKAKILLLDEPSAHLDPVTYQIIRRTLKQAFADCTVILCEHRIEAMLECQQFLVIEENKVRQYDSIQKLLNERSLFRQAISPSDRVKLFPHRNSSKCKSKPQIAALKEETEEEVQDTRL

Row | Compound | EC50 [nM] | Emax [%]
1 | COc1cccc(CCNC(=O)[C@@H]2CC(=O)N(C)[C@@H](CC(C)C)C(=O)N(C)[C@H](CC(C)(C)C)C(=O)N[C@H](Cc3ccccc3)COc3cc(C)nc(OC)c3C(=O)N2)c1 [Example 873, (3R,6R,9S,13S)-3-benzyl-9-isobutyl-16-methoxy-N-(3-methoxyphenethyl)-7,10,18-trimethyl-6-neopentyl-5,8,11,15-tetraoxo-2,3,4,5,6,7,8,9,10,11,12,13,14,15-tetradecahydropyrido[3,4-p][1]oxa[4,7,10,14]tetraazacycloheptadecine-13-carboxamide] | 41 | 336
2 | COc1nc(C)cc2c1C(=O)N[C@H](C(=O)NCCc1cc(C)no1)CC(=O)N(C)[C@@H](CC(C)C)C(=O)N(C)[C@H](CCc1ccccc1)C(=O)N[C@H](Cc1ccccc1)CO2 [Example 874, (3R,6R,9S,13S)-3-benzyl-9-isobutyl-16-methoxy-7,10,18-trimethyl-N-(2-(3-methylisoxazol-5-yl)ethyl)-5,8,11,15-tetraoxo-6-phenethyl-2,3,4,5,6,7,8,9,10,11,12,13,14,15-tetradecahydropyrido[3,4-p][1]oxa[4,7,10,14]tetraazacycloheptadecine-13-carboxamide] | 66 | 332
3 | COc1cccc(CCNC(=O)[C@@H]2CC(=O)N(C)[C@@H](CC(C)C)C(=O)N(C)[C@H](CCc3ccccc3)C(=O)N[C@H](Cc3ccccc3)COc3cc(C)nc(OC)c3C(=O)N2)c1 [Example 875, (3R,6R,9S,13S)-3-benzyl-9-isobutyl-16-methoxy-N-(3-methoxyphenethyl)-7,10,18-trimethyl-5,8,11,15-tetraoxo-6-phenethyl-2,3,4,5,6,7,8,9,10,11,12,13,14,15-tetradecahydropyrido[3,4-p][1]oxa[4,7,10,14]tetraazacycloheptadecine-13-carboxamide] | 21 | 333
4 | COc1nc(C)cc2c1C(=O)N[C@H](C(=O)NCCc1cc(C)no1)CC(=O)N(C)[C@@H](CC(C)C)C(=O)N(C)[C@H](CC(C)(C)C)C(=O)N[C@H](Cc1ccccc1)CO2 [Example 876, (3R,6R,9S,13S)-3-benzyl-9-isobutyl-16-methoxy-7,10,18-trimethyl-N-(2-(3-methylisoxazol-5-yl)ethyl)-6-neopentyl-5,8,11,15-tetraoxo-2,3,4,5,6,7,8,9,10,11,12,13,14,15-tetradecahydropyrido[3,4-p][1]oxa[4,7,10,14]tetraazacycloheptadecine-13-carboxamide] | 113 | 317
5 | CCOCC[C@@H]1C(=O)N[C@H](Cc2ccccc2)COc2cc(C)nc(OC)c2C(=O)N[C@H](C(=O)NCCc2cc(OC)no2)CC(=O)N(C)[C@@H](CC(C)C)C(=O)N1C [Example 877, (3R,6R,9S,13S)-3-benzyl-6-(2-ethoxyethyl)-9-isobutyl-16-methoxy-N-(2-(3-methoxyisoxazol-5-yl)ethyl)-7,10,18-trimethyl-5,8,11,15-tetraoxo-2,3,4,5,6,7,8,9,10,11,12,13,14,15-tetradecahydropyrido[3,4-p][1]oxa[4,7,10,14]tetraazacycloheptadecine-13-carboxamide] | 186 | 361
6 | COc1cc(CCNC(=O)[C@@H]2CC(=O)N(C)[C@@H](CC(C)C)C(=O)N(C)[C@H](CC(C)(C)C)C(=O)N[C@H](Cc3ccccc3)COc3cc(C)nc(OC)c3C(=O)N2)on1 [Example 878, (3R,6R,9S,13S)-3-benzyl-9-isobutyl-16-methoxy-N-(2-(3-methoxyisoxazol-5-yl)ethyl)-7,10,18-trimethyl-6-neopentyl-5,8,11,15-tetraoxo-2,3,4,5,6,7,8,9,10,11,12,13,14,15-tetradecahydropyrido[3,4-p][1]oxa[4,7,10,14]tetraazacycloheptadecine-13-carboxamide] | 27 | 336
7 | COc1cc(C[C@@H]2C(=O)N[C@H](Cc3ccccc3)COc3ccc4ncc(F)cc4c3C(=O)N[C@H](C(=O)NCCc3noc(C4CC4)n3)CC(=O)N(C)[C@@H](CC(C)C)C(=O)N2C)on1 [Example 879, (3S,7S,10R,13R)-13-benzyl-N-(2-(5-cyclopropyl-1,2,4-oxadiazol-3-yl)ethyl)-20-fluoro-7-isobutyl-10-((3-methoxyisoxazol-5-yl)methyl)-6,9-dimethyl-1,5,8,11-tetraoxo-1,2,3,4,5,6,7,8,9,10,11,12,13,14-tetradecahydro-[1]oxa[4,7,10,14]tetraazacycloheptadecino[16,17-f]quinoline-3-carboxamide] | 63 | 360
8 | COc1cc(CCNC(=O)[C@@H]2CC(=O)N(C)[C@@H](CC(C)C)C(=O)N(C)[C@H](Cc3cc(OC)no3)C(=O)N[C@H](Cc3ccccc3)COc3ccc4ncc(F)cc4c3C(=O)N2)on1 [Example 880, (3S,7S,10R,13R)-13-benzyl-20-fluoro-7-isobutyl-N-(2-(3-methoxyisoxazol-5-yl)ethyl)-10-((3-methoxyisoxazol-5-yl)methyl)-6,9-dimethyl-1,5,8,11-tetraoxo-1,2,3,4,5,6,7,8,9,10,11,12,13,14-tetradecahydro-[1]oxa[4,7,10,14]tetraazacycloheptadecino[16,17-f]quinoline-3-carboxamide] | 59 | 359
9 | COc1nccc2c1C(=O)N[C@H](C(=O)NCCc1noc(C3CC3)n1)CC(=O)N(C)[C@@H](CC(C)C)C(=O)N(C)[C@H](CCc1nc(C(C)(C)C)no1)C(=O)N[C@H](Cc1ccccc1)CO2 [Example 881, (3R,6R,9S,13S)-3-benzyl-6-(2-(3-(tert-butyl)-1,2,4-oxadiazol-5-yl)ethyl)-N-(2-(5-cyclopropyl-1,2,4-oxadiazol-3-yl)ethyl)-9-isobutyl-16-methoxy-7,10-dimethyl-5,8,11,15-tetraoxo-2,3,4,5,6,7,8,9,10,11,12,13,14,15-tetradecahydropyrido[3,4-p][1]oxa[4,7,10,14]tetraazacycloheptadecine-13-carboxamide] | 309 | 337
10 | COc1nccc2c1C(=O)N[C@H](C(=O)NCCc1noc(C3CC3)n1)CC(=O)N(C)[C@@H](CC(C)C)C(=O)N(C)[C@H](Cn1cc(-c3ccccc3)nn1)C(=O)N[C@H](Cc1ccccc1)CO2 [Example 882, (3R,6R,9S,13S)-3-benzyl-N-(2-(5-cyclopropyl-1,2,4-oxadiazol-3-yl)ethyl)-9-isobutyl-16-methoxy-7,10-dimethyl-5,8,11,15-tetraoxo-6-((4-phenyl-1H-1,2,3-triazol-1-yl)methyl)-2,3,4,5,6,7,8,9,10,11,12,13,14,15-tetradecahydropyrido[3,4-p][1]oxa[4,7,10,14]tetraazacycloheptadecine-13-carboxamide] | 473 | 367
11 | COc1nccc2c1C(=O)N[C@H](C(=O)NCCc1noc(C3CC3)n1)CC(=O)N(C)[C@@H](CC(C)C)C(=O)N(C)[C@H](CCc1nc(C3CCCC3)no1)C(=O)N[C@H](Cc1ccccc1)CO2 [Example 883, (3R,6R,9S,13S)-3-benzyl-6-(2-(3-cyclopentyl-1,2,4-oxadiazol-5-yl)ethyl)-N-(2-(5-cyclopropyl-1,2,4-oxadiazol-3-yl)ethyl)-9-isobutyl-16-methoxy-7,10-dimethyl-5,8,11,15-tetraoxo-2,3,4,5,6,7,8,9,10,11,12,13,14,15-tetradecahydropyrido[3,4-p][1]oxa[4,7,10,14]tetraazacycloheptadecine-13-carboxamide] | 111 | 344
